{
  "source": "patent US20240390331A1",
  "about": "“ORAL BENDAMUSTINE FORMULATIONS” (TUBE Pharmaceuticals GmbH, priority 2017, published 2024)",
  "key": {"[1]": {"conditions": "bendamustine itself, Preiss R et al. 1985; cited from earlier work"}, "[2]": {"test": "PK of bendamustine capsule formulations vs 60 min IV infusion in beagle dogs, cross over (Example 7)", "conditions": "dog, plasma", "from_the_text": "As bioanalytical method a fast and reliable method was used to determine bendamustine and its main metabolite γ-hydroxybendamustine (M3 metabolite) simultaneously in plasma of different species (Srinivas N R et al., Drug Res (Stuttg), 2016, 66(7), 351-356; Chandrashekar D V et al., Drug Res (Stuttg), 2017, doi: 10.1055/s-0043-108124).\nThe oral bioavailability and the PK profile of formulations of bendamustine with 2-hydroxypropyl-β-cyclodextrin and β-cyclodextrin were compared in beagle dogs.\nCapsules with an amount of bendamustine hydrochloride for each of the two formulations to reach a dose of 12 mg/kg were administered to beagle dogs using a cross over design and compared to 60 min IV infusion administration. Capsule formulations were stored between 2-8° C. The respective IV formulation was prepared fresh immediately prior to dosing."}},
  "data": [
    {"smiles": "Cl.Cn1c(CCCC(=O)O)nc2cc(N(CCCl)CCCl)ccc21", "note": "[bendamustine, 4-(5-(bis-(2-chloro-ethyl)-amino)-1-methyl-1H-benzimidazol-2-yl)-butyric acid hydrochloride]", "values": [
      {"measurement": "oral bioavailability", "setting": "[1]", "result": "about 56%"},
      {"measurement": "AUC", "setting": "[2]", "result": 3800, "unit": "ng·h/mL"},
      {"measurement": "Cmax", "setting": "[2]", "result": 4300, "unit": "ng/mL"}
    ]}
  ]
}
